Assay results: patent EP0549857A1, “Antibacterial quinolone carboxylic acid derivatives” (KOREA RESEARCH INSTITUTE OF CHEMICAL TECHNOLOGY, priority 1991, dated 1993)
Converted amounts (≈) assume the structure as drawn. Where two headings read alike, the source gives them in different places.

Experiments:
[1] = system: Klebsiella aerogenes 1082E; assay: In vitro anti-bacterial activity test (MIC, two-fold agar dilution); assay type: cell-based; details: Mueller-Hinton agar, 10⁷ CFU/mℓ, 37°C, 18 hours, read-out: MIC
Salmonella typhimurium = assay: as above; assay type: cell-based; details: Salmonella enterica, Mueller-Hinton agar, 10⁷ CFU/mℓ, 37°C, 18 hours, read-out: MIC
Escherichia coli 1507E = assay: as above; assay type: cell-based; details: Mueller-Hinton agar, 10⁷ CFU/mℓ, 37°C, 18 hours, read-out: MIC
Escherichia coli DC 2 = assay: as above; assay type: cell-based; details: DC2, Mueller-Hinton agar, 10⁷ CFU/mℓ, 37°C, 18 hours, read-out: MIC
Enterobacter cloacae P99 = assay: as above; assay type: cell-based; details: Mueller-Hinton agar, 10⁷ CFU/mℓ, 37°C, 18 hours, read-out: MIC
[2] = system: Staphylococcus aureus SG 511; assay: as above; assay type: cell-based; details: SG511; Staphylococcus aureus SG 511; Mueller-Hinton agar, 10⁷ CFU/mℓ, 37°C, 18 hours; read-out: MIC
[3] = system: Streptococcus pyogenes 308A; assay: as above; assay type: cell-based; details: Mueller-Hinton agar, 10⁷ CFU/mℓ, 37°C, 18 hours, read-out: MIC
Escherichia coli DC 0 = assay: as above; assay type: cell-based; details: DC0, Mueller-Hinton agar, 10⁷ CFU/mℓ, 37°C, 18 hours, read-out: MIC
Escherichia coli OTEM = assay: as above; assay type: cell-based; details: Mueller-Hinton agar, 10⁷ CFU/mℓ, 37°C, 18 hours, read-out: MIC
[4] = system: Pseudomonas aeruginosa 1771; assay: as above; assay type: cell-based; details: Pseudomonas aeruginosa 1771; Mueller-Hinton agar, 10⁷ CFU/mℓ, 37°C, 18 hours; read-out: MIC
Escherichia coli O 55 = assay: as above; assay type: cell-based; details: O55, Mueller-Hinton agar, 10⁷ CFU/mℓ, 37°C, 18 hours, read-out: MIC
[5] = system: Pseudomonas aeruginosa 1771M; assay: as above; assay type: cell-based; details: 18 h
[6] = system: Pseudomonas aeruginosa 1592E; assay: as above; assay type: cell-based; details: Mueller-Hinton agar, 10⁷ CFU/mℓ, 37°C, 18 hours, read-out: MIC
[7] = system: Klebsiella aerogenes 1522E; assay: as above; assay type: cell-based; details: Mueller-Hinton agar, 10⁷ CFU/mℓ, 37°C, 18 hours, read-out: MIC
[8] = system: Streptococcus faecium MD 8b; assay: as above; assay type: cell-based; details: Enterococcus faecium, MD8B; Streptococcus faecium MD 8b; Mueller-Hinton agar, 10⁷ CFU/mℓ, 37°C, 18 hours; read-out: MIC
[9] = system: Pseudomonas aeruginosa 9027; assay: as above; assay type: cell-based; details: Pseudomonas aeruginosa 9027; Mueller-Hinton agar, 10⁷ CFU/mℓ, 37°C, 18 hours; read-out: MIC
[10] = system: Staphylococcus aureus 503; assay: as above; assay type: cell-based; details: Staphylococcus aureus 503; Mueller-Hinton agar, 10⁷ CFU/mℓ, 37°C, 18 hours; read-out: MIC
[11] = system: Staphylococcus aureus 285; assay: as above; assay type: cell-based; details: Staphylococcus aureus 285; Mueller-Hinton agar, 10⁷ CFU/mℓ, 37°C, 18 hours; read-out: MIC
[12] = system: Streptococcus pyogenes 77A; assay: as above; assay type: cell-based; details: Streptococcus pyogenes 77A; Mueller-Hinton agar, 10⁷ CFU/mℓ, 37°C, 18 hours; read-out: MIC
[13] = system: Enterobacter cloacae 1321E; assay: as above; assay type: cell-based; details: Mueller-Hinton agar, 10⁷ CFU/mℓ, 37°C, 18 hours, read-out: MIC
P. mirabilis = assay: Preventive effect on the systemic infection; assay type: in vivo; details: Proteus mirabilis, in Mus musculus, P. mirabilis intraperitoneal infection, NMRI mice, survival on day 7, probit analysis, read-out: ED₅₀
Procedure: (§1) 10 fold of the pathogen which leads to 100% lethality were injected intraperitoneally to male and female NMRI mice weighing 18 to 20g. Immediately and after 4 hours, the dose of test compounds which was determined by two-fold serial dilution method was administered orally or subcutaneously; and on day 7, the effectiveness was evaluated in terms of ED₅₀ calculated from the number of survived mice by the probit analysis.

S. aureus 17740 = assay: Preventive effect on the systemic infection; assay type: in vivo; details: Staphylococcus aureus, 17740, in Mus musculus, S. aureus 17740 intraperitoneal infection, NMRI mice, survival on day 7, probit analysis, read-out: ED₅₀
Procedure: as §1

[14] = Oral Administration immediately and after 4 hours
[15] = Subcutaneous Injection immediately and after 4 hours

Row | SMILES | MIC [1] | MIC (Salmonella typhimurium) | MIC (Escherichia coli 1507E) | MIC (Escherichia coli DC 2) | MIC (Enterobacter cloacae P99) | MIC [2] | MIC [3] | MIC (Escherichia coli DC 0) | MIC (Escherichia coli OTEM) | MIC [4] | MIC (Escherichia coli O 55) | MIC [5] | MIC [6] | MIC [7] | MIC [8] | MIC [9] | MIC [10] | MIC [11] | MIC [12] | MIC [13] | also measured
1 | NC1CCCC2=C1CN(c1c(F)cc3c(=O)c(C(=O)O)cn(C4CC4)c3c1F)C2 (stereo not shown) [Example 9, 7-[6-amino-3-azabicyclo[4,3,0]non-1(5)ene-3-yl]-1-cyclopropyl-6,8-difluoro-1,4-dihydro-4-oxoquinoline-3-carboxylic acid] | 0.195 µg/mL (≈ 0.486 µM) | 0.013 µg/mL (≈ 0.0324 µM) | 0.098 µg/mL (≈ 0.244 µM) | 0.195 µg/mL (≈ 0.486 µM) | 0.049 µg/mL (≈ 0.122 µM) | 0.098 µg/mL (≈ 0.244 µM) | 0.391 µg/mL (≈ 0.974 µM) | 0.781 µg/mL (≈ 1.95 µM) | 0.098 µg/mL (≈ 0.244 µM) | 3.12 µg/mL (≈ 7.78 µM) | 0.049 µg/mL (≈ 0.122 µM) | 0.781 µg/mL (≈ 1.95 µM) | 3.12 µg/mL (≈ 7.78 µM) | 0.195 µg/mL (≈ 0.486 µM) | 0.098 µg/mL (≈ 0.244 µM) | 3.12 µg/mL (≈ 7.78 µM) | 0.098 µg/mL (≈ 0.244 µM) | 0.098 µg/mL (≈ 0.244 µM) | 0.098 µg/mL (≈ 0.244 µM) |  | 
2 | CNC1CCC2=C1CN(c1c(F)c(N)c3c(=O)c(C(=O)O)cn(C4CC4)c3c1F)C2 (stereo not shown) [Example 11, 7-[6-methylamino-3-azabicyclo[3,3,0]oct-1(5)ene-3-yl]-5-amino-1-cyclopropyl-6,8-difluoro-1,4-dihydro-4-oxoquinoline-3-carboxylic acid] | 0.007 µg/mL (≈ 0.0168 µM) | 0.098 µg/mL (≈ 0.235 µM) | 0.098 µg/mL (≈ 0.235 µM) | 0.049 µg/mL (≈ 0.118 µM) | 0.195 µg/mL (≈ 0.468 µM) | 0.195 µg/mL (≈ 0.468 µM) | 0.391 µg/mL (≈ 0.939 µM) | 1.56 µg/mL (≈ 3.75 µM) | 0.049 µg/mL (≈ 0.118 µM) | 3.12 µg/mL (≈ 7.5 µM) | 0.025 µg/mL (≈ 0.06 µM) | 1.56 µg/mL (≈ 3.75 µM) | 3.12 µg/mL (≈ 7.5 µM) | 0.195 µg/mL (≈ 0.468 µM) | 0.195 µg/mL (≈ 0.468 µM) | 3.12 µg/mL (≈ 7.5 µM) | 0.049 µg/mL (≈ 0.118 µM) | 0.049 µg/mL (≈ 0.118 µM) | 0.195 µg/mL (≈ 0.468 µM) | 0.049 µg/mL (≈ 0.118 µM) | 
3 | CNC1CCC2=C1CN(c1nc3c(cc1F)c(=O)c(C(=O)O)cn3C1CC1)C2 (stereo not shown) [Example 15, 7-[6-methylamino-3-azabicyclo[3,3,0]oct-1(5)ene-3-yl]-1-cyclopropyl-6-fluoro-1,4-dihydro-4-oxo-1,8-naphthyridine-3-carboxylic acid] | 0.025 µg/mL (≈ 0.065 µM) | 0.195 µg/mL (≈ 0.507 µM) | 0.195 µg/mL (≈ 0.507 µM) | 0.391 µg/mL (≈ 1.02 µM) | 0.049 µg/mL (≈ 0.127 µM) | 0.098 µg/mL (≈ 0.255 µM) | 0.781 µg/mL (≈ 2.03 µM) | 1.56 µg/mL (≈ 4.07 µM) | 0.098 µg/mL (≈ 0.255 µM) | 3.12 µg/mL (≈ 8.13 µM) | 0.049 µg/mL (≈ 0.127 µM) | 1.56 µg/mL (≈ 4.07 µM) | 3.12 µg/mL (≈ 8.13 µM) | 0.195 µg/mL (≈ 0.507 µM) | 0.195 µg/mL (≈ 0.507 µM) | 3.12 µg/mL (≈ 8.13 µM) | 0.098 µg/mL (≈ 0.255 µM) | 0.195 µg/mL (≈ 0.507 µM) | 0.195 µg/mL (≈ 0.507 µM) | 0.049 µg/mL (≈ 0.127 µM) | 
4 | CNC1CCC2=C1CN(c1c(F)cc3c(=O)c(C(=O)O)cn4c3c1OC[C@@H]4C)C2 (stereo partly drawn) [Example 17, 9-fluoro-10-[6-methylamino-3-azabicyclo [3,3,0]oct-1(5)ene-3-yl]-3-(S)-methyl-7-oxo-2,3-dihydro-7H-pyrido[1,2,3-de]-1,4-benzoxazine-6-carboxylic acid] | 0.195 µg/mL (≈ 0.488 µM) | 0.391 µg/mL (≈ 0.979 µM) | 0.781 µg/mL (≈ 1.96 µM) | 0.391 µg/mL (≈ 0.979 µM) | 0.781 µg/mL (≈ 1.96 µM) | 0.391 µg/mL (≈ 0.979 µM) | 3.12 µg/mL (≈ 7.82 µM) | 3.12 µg/mL (≈ 7.82 µM) | 0.391 µg/mL (≈ 0.979 µM) | 12.5 µg/mL (≈ 31.3 µM) | 0.195 µg/mL (≈ 0.488 µM) | 3.12 µg/mL (≈ 7.82 µM) | 6.25 µg/mL (≈ 15.6 µM) | 1.56 µg/mL (≈ 3.91 µM) | 0.391 µg/mL (≈ 0.979 µM) | 12.5 µg/mL (≈ 31.3 µM) | 0.781 µg/mL (≈ 1.96 µM) | 0.781 µg/mL (≈ 1.96 µM) | 0.195 µg/mL (≈ 0.488 µM) | 0.391 µg/mL (≈ 0.979 µM) | 
5 | CC1COc2c(N3CCN(C)CC3)c(F)cc3c(=O)c(C(=O)O)cn1c23 (stereo not shown) [Ofloxacin, reference compound] | 0.025 µg/mL (≈ 0.0692 µM) | 0.098 µg/mL (≈ 0.271 µM) | 0.098 µg/mL (≈ 0.271 µM) | 0.391 µg/mL (≈ 1.08 µM) | 0.098 µg/mL (≈ 0.271 µM) | 0.391 µg/mL (≈ 1.08 µM) | 3.12 µg/mL (≈ 8.65 µM) | 0.781 µg/mL (≈ 2.16 µM) | 0.049 µg/mL (≈ 0.136 µM) | 1.56 µg/mL (≈ 4.33 µM) | 0.025 µg/mL (≈ 0.0692 µM) | 0.391 µg/mL (≈ 1.08 µM) | 1.56 µg/mL (≈ 4.33 µM) | 0.098 µg/mL (≈ 0.271 µM) | 0.781 µg/mL (≈ 2.16 µM) | 1.56 µg/mL (≈ 4.33 µM) | 0.391 µg/mL (≈ 1.08 µM) | 0.391 µg/mL (≈ 1.08 µM) | 1.56 µg/mL (≈ 4.33 µM) | 0.049 µg/mL (≈ 0.136 µM) | ED50 (P. mirabilis; [14]): 2.27 mg/kg; ED50 (P. mirabilis; [15]): 0.53 mg/kg; ED50 (S. aureus 17740; [14]): > 200 mg/kg; ED50 (S. aureus 17740; [15]): 200 mg/kg
